From PMC9320910, “Inhibition of Microtubule Affinity Regulating Kinase 4 by Metformin: Exploring the Neuroprotective Potential of Antidiabetic Drug through Spectroscopic and Computational Approaches” (Molecules, 2022)

Molecular target: T1, Microtubule affinity regulating kinase 4 (MARK4) (Homo sapiens, UniProt Q96L34)
T1 sequence (Q96L34 1-752): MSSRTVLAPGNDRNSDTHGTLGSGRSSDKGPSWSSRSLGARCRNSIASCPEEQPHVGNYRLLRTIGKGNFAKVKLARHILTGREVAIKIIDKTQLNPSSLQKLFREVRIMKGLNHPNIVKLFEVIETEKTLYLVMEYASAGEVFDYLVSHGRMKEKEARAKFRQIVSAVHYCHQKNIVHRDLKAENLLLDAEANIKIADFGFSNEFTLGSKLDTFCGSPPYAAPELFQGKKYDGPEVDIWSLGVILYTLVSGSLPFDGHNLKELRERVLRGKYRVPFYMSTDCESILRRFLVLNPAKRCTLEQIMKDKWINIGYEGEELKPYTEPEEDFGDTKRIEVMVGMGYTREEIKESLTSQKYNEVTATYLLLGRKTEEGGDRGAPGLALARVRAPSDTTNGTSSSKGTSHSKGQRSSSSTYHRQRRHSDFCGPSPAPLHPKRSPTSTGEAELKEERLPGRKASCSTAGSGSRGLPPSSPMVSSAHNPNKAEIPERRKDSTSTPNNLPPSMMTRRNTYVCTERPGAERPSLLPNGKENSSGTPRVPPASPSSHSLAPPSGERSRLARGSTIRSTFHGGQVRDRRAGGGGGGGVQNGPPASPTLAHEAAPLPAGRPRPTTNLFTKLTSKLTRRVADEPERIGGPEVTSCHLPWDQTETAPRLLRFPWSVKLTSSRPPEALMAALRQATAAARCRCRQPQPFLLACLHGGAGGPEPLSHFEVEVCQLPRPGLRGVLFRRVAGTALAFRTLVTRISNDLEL
Assay: intrinsic fluorescence quenching (modified Stern-Volmer); supported by malachite green ATPase assay of MARK4 (IC50 =[…])
Type: binding

CN(C)C(=N)N=C(N)N [Mtf, N,N-dimethylbiguanide]
Kd: 1670 nM
